ChEMBL document CHEMBL5335843, “Application of tobramycin benzyl ether as an antibiotic adjuvant capable of sensitizing multidrug-resistant Gram-negative bacteria to rifampicin” (2024)

How the values were obtained:
Acinetobacter baumannii [1] = test: Antibacterial activity against multi-drug resistant Acinetobacter baumannii clinical isolate AB027 assessed as inhibition of bacterial growth incubated for 18 hrs by two fold broth microdilution assay; format: functional
Pseudomonas aeruginosa [2] = test: Antibacterial activity against Pseudomonas aeruginosa PAO1 assessed as inhibition of bacterial growth incubated for 18 hrs by two fold broth microdilution assay; format: functional
Pseudomonas aeruginosa [3] = test: Antibacterial activity against multi-drug resistant Pseudomonas aeruginosa clinical isolate 114228 assessed as inhibition of bacterial growth incubated for 18 hrs by two fold broth microdilution assay; format: functional
Escherichia coli [4] = test: Antibacterial activity against multi-drug resistant Escherichia coli clinical isolate 107115 assessed as inhibition of bacterial growth incubated for 18 hrs by two fold broth microdilution assay; format: functional
Acinetobacter baumannii [5] = test: Antibacterial activity against multi-drug resistant Acinetobacter baumannii clinical isolate 92247 assessed as inhibition of bacterial growth incubated for 18 hrs by two fold broth microdilution assay; format: functional
Acinetobacter baumannii [6] = test: Antibacterial activity against multi-drug resistant Acinetobacter baumannii clinical isolate LAC-4 assessed as inhibition of bacterial growth incubated for 18 hrs by two fold broth microdilution assay; format: functional
Pseudomonas aeruginosa [7] = test: Antibiotic adjuvant activity against multi-drug resistant Pseudomonas aeruginosa clinical isolate 101243 assessed as rifampicin MIC incubated for 18 hrs in presence of Rifampicin by two fold broth microdilution checkerboard assay; format: functional
Pseudomonas aeruginosa [8] = test: Antibiotic adjuvant activity against multi-drug resistant Pseudomonas aeruginosa clinical isolate 114228 assessed as rifampicin MIC incubated for 18 hrs in presence of Rifampicin by two fold broth microdilution checkerboard assay; format: functional
Pseudomonas aeruginosa [9] = test: Antibiotic adjuvant activity against multi-drug resistant Pseudomonas aeruginosa clinical isolate PA264 assessed as rifampicin MIC incubated for 18 hrs in presence of Rifampicin by two fold broth microdilution checkerboard assay; format: functional
Escherichia coli [10] = test: Antibiotic adjuvant activity against multi-drug resistant Escherichia coli clinical isolate 94474 assessed as rifampicin MIC incubated for 18 hrs in presence of Rifampicin by two fold broth microdilution checkerboard assay; format: functional
Acinetobacter baumannii [11] = test: Antibiotic adjuvant activity against multi-drug resistant Acinetobacter baumannii clinical isolate 92247 assessed as rifampicin MIC incubated for 18 hrs in presence of Rifampicin by two fold broth microdilution checkerboard assay; format: functional
Pseudomonas aeruginosa [12] = test: Antibiotic adjuvant activity against multi-drug resistant Pseudomonas aeruginosa clinical isolate PA259 assessed as inhibition of bacterial growth incubated for 18 hrs in presence of Rifampicin by two fold broth microdilution checkerboard assay; format: functional
Acinetobacter baumannii [13] = test: Antibiotic adjuvant activity against multi-drug resistant Acinetobacter baumannii clinical isolate AB027 assessed as inhibition of bacterial growth incubated for 18 hrs in presence of Rifampicin by two fold broth microdilution checkerboard assay; format: functional
Escherichia coli [14] = test: Antibiotic adjuvant activity against multi-drug resistant Escherichia coli clinical isolate 107115 assessed as fold potentiation incubated for 18 hrs in presence of Rifampicin by two fold broth microdilution checkerboard assay; format: functional
Pseudomonas aeruginosa [15] = test: Antibiotic adjuvant activity against multi-drug resistant Pseudomonas aeruginosa clinical isolate 114228 assessed as fractional inhibitory concentration index incubated for 18 hrs in presence of Rifampicin by two fold broth microdilution checkerboard assay; format: functional
Escherichia coli [16] = test: Antibiotic adjuvant activity against multi-drug resistant Escherichia coli clinical isolate 94474 assessed as fractional inhibitory concentration index incubated for 18 hrs in presence of Rifampicin by two fold broth microdilution checkerboard assay; format: functional
Acinetobacter baumannii [17] = test: Antibiotic adjuvant activity against multi-drug resistant Acinetobacter baumannii clinical isolate AB031 assessed as fractional inhibitory concentration index incubated for 18 hrs in presence of Rifampicin by two fold broth microdilution checkerboard assay; format: functional
Pseudomonas aeruginosa [18] = test: Antibacterial activity against multi-drug resistant Pseudomonas aeruginosa clinical isolate PA114228 assessed as inhibition of bacterial growth incubated for 18 hrs by two fold broth microdilution assay; format: functional
Escherichia coli [19] = test: Antibiotic adjuvant activity against multi-drug resistant Escherichia coli clinical isolate EC94474 assessed as minocycline MIC incubated for 18 hrs in presence of minocycline by two fold broth microdilution checkerboard assay; format: functional
Pseudomonas aeruginosa [20] = test: Antibiotic adjuvant activity against multi-drug resistant Pseudomonas aeruginosa clinical isolate PA101243 assessed as inhibition of bacterial growth incubated for 18 hrs in presence of minocycline by two fold broth microdilution checkerboard assay; format: functional
Pseudomonas aeruginosa [21] = test: Antibiotic adjuvant activity against multi-drug resistant Pseudomonas aeruginosa clinical isolate PA259 assessed as fold potentiation incubated for 18 hrs in presence of minocycline by two fold broth microdilution checkerboard assay; format: functional
Pseudomonas aeruginosa [22] = test: Antibiotic adjuvant activity against multi-drug resistant Pseudomonas aeruginosa clinical isolate PA262 assessed as fold potentiation incubated for 18 hrs in presence of minocycline by two fold broth microdilution checkerboard assay; format: functional
Pseudomonas aeruginosa [23] = test: Antibiotic adjuvant activity against multi-drug resistant Pseudomonas aeruginosa clinical isolate PA114228 assessed as fractional inhibitory concentration index incubated for 18 hrs in presence of minocycline by two fold broth microdilution checkerboard assay; format: functional
Pseudomonas aeruginosa [24] = test: Antibiotic adjuvant activity against multi-drug resistant Pseudomonas aeruginosa clinical isolate PA264 assessed as fractional inhibitory concentration index incubated for 18 hrs in presence of minocycline by two fold broth microdilution checkerboard assay; format: functional
Pseudomonas aeruginosa [25] = test: Antibiotic adjuvant activity against multi-drug resistant Pseudomonas aeruginosa clinical isolate PA101243 assessed as inhibition of bacterial growth incubated for 18 hrs in presence of doxycycline by two fold broth microdilution checkerboard assay; format: functional
Enterococcus faecium [26] = test: Antibiotic adjuvant activity against Enterococcus faecium 114278 assessed as rifampicin MIC incubated for 18 hrs in presence of rifampicin by two fold broth microdilution checkerboard assay; format: functional
Enterococcus faecium [27] = test: Antibiotic adjuvant activity against Enterococcus faecium 114278 assessed as fractional inhibitory concentration index incubated for 18 hrs in presence of rifampicin by two fold broth microdilution checkerboard assay; format: functional
Escherichia coli [28] = test: Antibiotic adjuvant activity against Escherichia coli ATCC 25922 assessed as fold potentiation incubated for 18 hrs in presence of novobiocin by two fold broth microdilution checkerboard assay; format: functional
Escherichia coli [29] = test: Antibiotic adjuvant activity against Escherichia coli ATCC 25922 assessed as fold potentiation incubated for 18 hrs in presence of vancomycin by two fold broth microdilution checkerboard assay; format: functional
Cell membrane = test: Induction of outer membrane permeabilization in Escherichia coli ATCC 25922 assessed as increase fluorescence intensity by measuring NPN uptake factor by fluorescence based analysis; format: subcellular
Pseudomonas aeruginosa [30] = test: Antibiotic adjuvant activity against Pseudomonas aeruginosa PAO1 assessed as fold potentiation incubated for 18 hrs in presence of rifampicin and CAMHB Mg2+ media by two fold broth microdilution checkerboard assay; format: functional
Pseudomonas aeruginosa [31] = test: Antibiotic adjuvant activity against Pseudomonas aeruginosa PAO1 assessed as fold increase in MIC incubated for 18 hrs in presence of rifampicin and CAMHB Mg2+ media by two fold broth microdilution checkerboard assay; format: functional
Escherichia coli [32] = test: Antibiotic adjuvant activity against Escherichia coli ATCC 25922 assessed as fold potentiation incubated for 18 hrs in presence of rifampicin and CAMHB Na+ media by two fold broth microdilution checkerboard assay; format: functional
Acinetobacter baumannii [33] = test: Antibiotic adjuvant activity against Acinetobacter baumannii ATCC 17978 assessed as fold potentiation at 8 to 16 ug/ml incubated for 18 hrs in presence of rifampicin and FBS media by two fold broth microdilution checkerboard assay; format: functional; conditions: dose 8-16 µg/ml
Acinetobacter baumannii [34] = test: Antibiotic adjuvant activity against Acinetobacter baumannii ATCC 17978 assessed as minocycline MIC incubated for 18 hrs in presence of minocycline by two fold broth microdilution checkerboard assay; format: functional
Enterobacterales = test: Antibiotic adjuvant activity against Enterobacterales assessed as minocycline MIC incubated for 18 hrs in presence of minocycline by two fold broth microdilution checkerboard assay; format: functional

Cl.NC[C@H]1O[C@H](O[C@H]2[C@H](OCc3ccccc3)[C@@H](O[C@H]3O[C@H](COCc4ccccc4)[C@@H](OCc4ccccc4)[C@H](N)[C@H]3OCc3ccccc3)[C@H](N)C[C@@H]2N)[C@H](N)C[C@@H]1OCc1ccccc1
MIC (Acinetobacter baumannii [1]): 64 µg/mL | MIC (Pseudomonas aeruginosa [2]): 64 µg/mL | MIC (Pseudomonas aeruginosa [3]): 64 µg/mL | MIC (Escherichia coli [4]): 32 µg/mL | MIC (Acinetobacter baumannii [5]): 32 µg/mL | MIC (Acinetobacter baumannii [6]): 16 µg/mL | MIC (Pseudomonas aeruginosa [7]): 0.004 µg/mL | MIC (Pseudomonas aeruginosa [8]): 16 µg/mL | MIC (Pseudomonas aeruginosa [9]): 16 µg/mL | MIC (Escherichia coli [10]): 0.031 µg/mL | MIC (Acinetobacter baumannii [11]): 0.008 µg/mL | MIC (Pseudomonas aeruginosa [12]): 8 µg/mL | MIC (Acinetobacter baumannii [13]): 8 µg/mL | fold change (FC) (Escherichia coli [14]): 1024 | fractional inhibitory concentration index (FICI) (Pseudomonas aeruginosa [15]): 1.125 | fractional inhibitory concentration index (FICI) (Escherichia coli [16]): 0.129 | fractional inhibitory concentration index (FICI) (Acinetobacter baumannii [17]): 0.251 | MIC (Pseudomonas aeruginosa [18]): 64 µg/mL | MIC (Escherichia coli [19]): 1 µg/mL | MIC (Pseudomonas aeruginosa [20]): 8 µg/mL | fold change (FC) (Pseudomonas aeruginosa [21]): 1 | fold change (FC) (Pseudomonas aeruginosa [22]): 1 | fractional inhibitory concentration index (FICI) (Pseudomonas aeruginosa [23]): 1.063 | fractional inhibitory concentration index (FICI) (Pseudomonas aeruginosa [24]): 0.563 | MIC (Pseudomonas aeruginosa [25]): 8 µg/mL | MIC (Enterococcus faecium [26]): 4 µg/mL | fractional inhibitory concentration index (FICI) (Enterococcus faecium [27]): 1.5 | fold change (FC) (Escherichia coli [28]): 2048 | fold change (FC) (Escherichia coli [29]): 4 | Activity (Cell membrane): Dose-Dependent Effect | fold change (FC) (Pseudomonas aeruginosa [30]): 1 | fold change (FC) (Pseudomonas aeruginosa [31]): >=2 | fold change (FC) (Escherichia coli [32]): 512 | fold change (FC) (Acinetobacter baumannii [33]): 4 | MIC (Acinetobacter baumannii [34]): ≤ 4 µg/mL | MIC (Enterobacterales): ≤ 4 µg/mL
